≈ marks a conversion by molar mass, not a printed value.
Key:
Format in all cases: cell-based
Candida albicans 90028 = experiment: In vitro antifungal assay (Example IX), microdilution broth, MIC; conditions: minimum inhibitory concentration (≥50% inhibition), 35° C., 40-48 h, RPMI1640
How it was run: (§1)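 Yeast inocula (2.5×10^3 cells/mL, RPMI1640) were exposed to twofold compound series reaching 2-0.0019 μg/mL final, per CLSI yeast methodology. Incubation at 35° C. ran 40-48 h for Candida albicans 90028 and 72 h for Cryptococcus neoformans H99. MIC endpoints were confirmed by absorbance at 600 nm.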

[1] = tested on: Cryptococcus neoformans H99; experiment: as above; conditions: minimum inhibitory concentration (≥50% inhibition), 35° C., 72 h, RPMI1640
How it was run: as §1

[2] = tested on: Aspergillus fumigatus MYA3626; experiment: In vitro antifungal assay (Example IX), microdilution broth, MEC; conditions: minimum effective concentration (shortening of hyphae), 35° C., 40-48 h, RPMI1640
How it was run: (§2)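 Read-out is the minimum effective concentration: lowest compound level causing shorter hyphae than in DMSO controls, echinocandin-style. Broth microdilution used conidia or spores harvested from agar plates, cleared of mycelium and clumps, at a final 1-2×10^4 spores/mL in RPMI1640.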

[3] = tested on: Rhizomucor pusillus 46342; experiment: as above; conditions: minimum effective concentration (shortening of hyphae), 35° C., 40-48 h, RPMI1640
How it was run: as §2

Cryptococcus gattii = experiment: In vitro antifungal assay (Example IX), microdilution broth, MIC; conditions: minimum inhibitory concentration (≥50% inhibition), 35° C., 72 h (Cryptococcus), RPMI1640
How it was run: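 MIC was determined from OD600 after 72 h at 35 °C for Cryptococcus, in RPMI1640 inoculated at 2.5×10^3 cells/mL. Compounds were tested as a 2-fold series from 2 to 0.0019 μg/mL final, added from DMSO intermediates at a 100-fold dilution.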

Compound | MIC (Candida albicans 90028) [µg/mL] | MIC [1] [µg/mL] | minimal effective concentration [2] [µg/mL] | minimal effective concentration [3] [µg/mL] | MIC (Cryptococcus gattii) [µg/mL]
Nc1ncccc1-c1cc(Cc2ccc(Nc3cccc(F)c3F)nc2)no1 [compound 72, 5-((5-(2-aminopyridin-3-yl)isoxazol-3-yl)methyl)-N-(2,3-difluorophenyl)pyridin-2-amine] | 0.01 to 0.1 (≈ 0.0264 to 0.264 µM) | 0.01 to 0.1 (≈ 0.0264 to 0.264 µM) | 0.1 to 1 | 0.1 to 1 | 0.1 to 1 (≈ 0.264 to 2.64 µM)
Nc1ncccc1-c1cc(Cc2ccc(OCc3ccco3)nc2)no1 [compound 73, 3-(3-((6-(furan-2-ylmethoxy)pyridin-3-yl)methyl)isoxazol-5-yl)pyridin-2-amine] | 0.01 to 0.1 (≈ 0.0287 to 0.287 µM) | > 1 | 0.1 to 1 | > 1 | > 1
Nc1ncccc1-c1cc(Cc2ccc(NCc3ccccc3F)nc2)no1 [compound 74, 5-((5-(2-aminopyridin-3-yl)isoxazol-3-yl)methyl)-N-(2-fluorobenzyl)pyridin-2-amine] | 0.01 to 0.1 (≈ 0.0266 to 0.266 µM) | 0.01 to 0.1 (≈ 0.0266 to 0.266 µM) | 0.1 to 1 | > 1 | 0.01 to 0.1 (≈ 0.0266 to 0.266 µM)
Nc1ncccc1-c1cc(Cc2ccc(Oc3ccc(F)cc3F)nc2)no1 [compound 75, 3-(3-((6-(2,4-difluorophenoxy)pyridin-3-yl)methyl)isoxazol-5-yl)pyridin-2-amine] | 0.01 to 0.1 (≈ 0.0263 to 0.263 µM) | 0.01 to 0.1 (≈ 0.0263 to 0.263 µM) | 0.01 to 0.1 | 0.1 to 1 | 0.1 to 1 (≈ 0.263 to 2.63 µM)
Nc1ncccc1-c1cc(Cc2ccc(OCCc3ccccc3F)nc2)no1 [compound 77, 3-(3-((6-(2-fluorophenethoxy)pyridin-3-yl)methyl)isoxazol-5-yl)pyridin-2-amine] | 0.01 to 0.1 (≈ 0.0256 to 0.256 µM) | 0.01 to 0.1 (≈ 0.0256 to 0.256 µM) | 0.1 to 1 | 0.1 to 1 | 0.01 to 0.1 (≈ 0.0256 to 0.256 µM)
Nc1ncccc1-c1cc(Cc2ccc(OCCc3ccccc3)nc2)no1 [compound 78, 3-(3-((6-phenethoxypyridin-3-yl)methyl)isoxazol-5-yl)pyridin-2-amine] | 0.01 to 0.1 (≈ 0.0269 to 0.269 µM) | 0.01 to 0.1 (≈ 0.0269 to 0.269 µM) | 0.1 to 1 | 0.1 to 1 | 0.01 to 0.1 (≈ 0.0269 to 0.269 µM)
Nc1ncccc1-c1cc(Cc2ccc(OCCc3ccc(F)cc3)nc2)no1 [compound 79, 3-(3-((6-(4-fluorophenethoxy)pyridin-3-yl)methyl)isoxazol-5-yl)pyridin-2-amine] | 0.01 to 0.1 (≈ 0.0256 to 0.256 µM) | 0.01 to 0.1 (≈ 0.0256 to 0.256 µM) | 0.1 to 1 | 0.1 to 1 | 0.1 to 1 (≈ 0.256 to 2.56 µM)
Nc1ncccc1-c1cc(Cc2ccc(OCc3cccc(F)c3)nc2)no1 [compound 80, 3-(3-((6-((3-fluorobenzyl)oxy)pyridin-3-yl)methyl)isoxazol-5-yl)pyridin-2-amine] | ≤ 0.01 | 0.01 to 0.1 (≈ 0.0266 to 0.266 µM) | ≤ 0.01 | 0.1 to 1 | 0.01 to 0.1 (≈ 0.0266 to 0.266 µM)
Nc1ncccc1-c1cc(Cc2ccc(Oc3cc(F)cc(F)c3)nc2)no1 [compound 81, 3-(3-((6-(3,5-difluorophenoxy)pyridin-3-yl)methyl)isoxazol-5-yl)pyridin-2-amine] | 0.01 to 0.1 (≈ 0.0263 to 0.263 µM) | ≤ 0.01 | 0.01 to 0.1 | 0.1 to 1 | 0.01 to 0.1 (≈ 0.0263 to 0.263 µM)
Cc1csc(COc2ccc(Cc3cc(-c4cccnc4N)on3)cn2)n1 [compound 82, 3-(3-((6-((4-methylthiazol-2-yl)methoxy)pyridin-3-yl)methyl)isoxazol-5-yl)pyridin-2-amine] | 0.1 to 1 (≈ 0.264 to 2.64 µM) | 0.01 to 0.1 (≈ 0.0264 to 0.264 µM) | 0.01 to 0.1 | > 1 | 0.01 to 0.1 (≈ 0.0264 to 0.264 µM)
Nc1ncccc1-c1cc(Cc2ccc(OCc3ccnc(Cl)c3)nc2)no1 [compound 83, 3-(3-((6-((2-chloropyridin-4-yl)methoxy)pyridin-3-yl)methyl)isoxazol-5-yl)pyridin-2-amine] | 0.01 to 0.1 (≈ 0.0254 to 0.254 µM) | ≤ 0.01 | 0.01 to 0.1 | > 1 | 0.01 to 0.1 (≈ 0.0254 to 0.254 µM)
Nc1ncccc1-c1cc(Cc2ccc(OCc3cc(F)cc(F)c3)nc2)no1 [compound 84, 3-(3-((6-((3,5-difluorobenzyl)oxy)pyridin-3-yl)methyl)isoxazol-5-yl)pyridin-2-amine] | 0.01 to 0.1 (≈ 0.0254 to 0.254 µM) | 0.01 to 0.1 (≈ 0.0254 to 0.254 µM) | 0.01 to 0.1 | 0.1 to 1 | 0.1 to 1 (≈ 0.254 to 2.54 µM)
Nc1ncccc1-c1cc(Cc2ccc(/C=C/C3CCCCC3)cc2)no1 [compound 99, (E)-3-(3-(4-(2-cyclohexylvinyl)benzyl)isoxazol-5-yl)pyridin-2-amine] | > 1 | 0.1 to 1 (≈ 0.278 to 2.78 µM) | 0.1 to 1 | > 1 | 0.1 to 1 (≈ 0.278 to 2.78 µM)
Nc1ncccc1-c1cc(Cc2ccc(CCC3CCCCC3)cc2)no1 [compound 100, 3-(3-(4-(2-cyclohexylethyl)benzyl)isoxazol-5-yl)pyridin-2-amine] | 0.1 to 1 (≈ 0.277 to 2.77 µM) | 0.1 to 1 (≈ 0.277 to 2.77 µM) | 0.1 to 1 | > 1 | 0.1 to 1 (≈ 0.277 to 2.77 µM)
Nc1ncccc1-c1cnn(Cc2ccc(OCc3ccccc3)nc2)c1 [compound 101, 3-(1-((6-(benzyloxy)pyridin-3-yl)methyl)-1H-pyrazol-4-yl)pyridin-2-amine] | 0.1 to 1 (≈ 0.28 to 2.8 µM) | 0.01 to 0.1 (≈ 0.028 to 0.28 µM) | 0.1 to 1 | > 1 | 0.01 to 0.1 (≈ 0.028 to 0.28 µM)
Nc1ncccc1-c1cc(Cc2ccc(COc3cccnc3)cc2)no1 [compound 105, 3-(3-(4-((pyridin-3-yloxy)methyl)benzyl)isoxazol-5-yl)pyridin-2-amine] | 0.01 to 0.1 (≈ 0.0279 to 0.279 µM) | 0.1 to 1 (≈ 0.279 to 2.79 µM) | 0.1 to 1 | > 1 | 0.01 to 0.1 (≈ 0.0279 to 0.279 µM)
Nc1ncccc1-c1cc(Cc2ccc(CNc3ccccc3F)cc2)no1 [compound 106, 3-(3-(4-(((2-fluorophenyl)amino)methyl)benzyl)isoxazol-5-yl)pyridin-2-amine] | 0.01 to 0.1 (≈ 0.0267 to 0.267 µM) | 0.1 to 1 (≈ 0.267 to 2.67 µM) | 0.01 to 0.1 | 0.1 to 1 | 0.01 to 0.1 (≈ 0.0267 to 0.267 µM)
Nc1ncccc1-c1cc(Cc2ccc(CNc3cccc(F)c3)cc2)no1 [compound 107, 3-(3-(4-(((3-fluorophenyl)amino)methyl)benzyl)isoxazol-5-yl)pyridin-2-amine] | 0.01 to 0.1 (≈ 0.0267 to 0.267 µM) | 0.01 to 0.1 (≈ 0.0267 to 0.267 µM) | 0.01 to 0.1 | 0.01 to 0.1 | 0.01 to 0.1 (≈ 0.0267 to 0.267 µM)
Nc1ncccc1-c1cc(Cc2ccc(CNc3cccc(F)c3F)cc2)no1 [compound 108, 3-(3-(4-(((2,3-difluorophenyl)amino)methyl)benzyl)isoxazol-5-yl)pyridin-2-amine] | 0.01 to 0.1 (≈ 0.0255 to 0.255 µM) | 0.1 to 1 (≈ 0.255 to 2.55 µM) | 0.01 to 0.1 | 0.1 to 1 | 0.1 to 1 (≈ 0.255 to 2.55 µM)
Nc1ncccc1-c1cc(Cc2ccc(Oc3ccccn3)cc2)no1 [compound 110, 3-(3-(4-(pyridin-2-yloxy)benzyl)isoxazol-5-yl)pyridin-2-amine] | 0.01 to 0.1 (≈ 0.029 to 0.29 µM) | 0.01 to 0.1 (≈ 0.029 to 0.29 µM) | 0.01 to 0.1 | 0.1 to 1 | ≤ 0.01
Nc1ncccc1-c1cc(Cc2ccc(OCc3nccs3)cc2)no1 [compound 112, 3-(3-(4-(thiazol-2-ylmethoxy)benzyl)isoxazol-5-yl)pyridin-2-amine] | 0.1 to 1 (≈ 0.274 to 2.74 µM) | 0.01 to 0.1 (≈ 0.0274 to 0.274 µM) | 0.01 to 0.1 | 0.1 to 1 | 0.01 to 0.1 (≈ 0.0274 to 0.274 µM)
